This note sets out measurements from PubChem BioAssay (NCI).

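Cultured in 96-well plates, cells were exposed to test compound for 48 hours across five concentrations. At the GI50, growth is halved. TGI is the concentration that stops growth completely.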

Among the test systems are ACHN renal; HL-60(TB) leukemia; HOP-62 NSCLC; HOP-92 NSCLC; NCI-H522 lung; RXF 393 renal; SNB-19 CNS; U251 CNS.
What all share (test): NCI tumour cell line growth inhibition, 48 h

As to `COc1ccc(C2=Nc3cc(C)c(C)cc3NC(c3ccccc3)C2)cc1` (stereo not drawn), the TGI in the experiment with ACHN renal, with HL-60(TB) leukemia, in the experiment with HOP-62 NSCLC, in the experiment with HOP-92 NSCLC, with NCI-H522 lung and with RXF 393 renal was over 100 µM throughout. Moreover, the TGI in the experiment on SNB-19 CNS and with U251 CNS was over 100 µM each time.

For the molecule `N#C/C(=C\c1ccsc1)c1nc2ccccc2o1`, the GI50 in the experiment on ACHN renal is 45.2 µM; with HL-60(TB) leukemia, over 100000 nM; in the experiment with HOP-92 NSCLC, 14.4 µM; in the experiment with NCI-H522 lung, 50.6 µM; in the experiment with RXF 393 renal, 39.8 µM; in the experiment with SNB-19 CNS, over 100 µM. The GI50 in the experiment with U251 CNS is 37.2 µM. Moreover, the TGI was over 100 µM with ACHN renal; over 100 µM in the experiment on HL-60(TB) leukemia; 42.8 µM with HOP-92 NSCLC; over 100 µM in the experiment with NCI-H522 lung; over 100 µM in the experiment with RXF 393 renal; over 100 µM with SNB-19 CNS. Also, the TGI with U251 CNS was over 100 µM.

With `C=C1C(O)C2C(=C(CC)C13CC3)C(=O)C(C)(C)C2OC` (stereo not drawn), the GI50 in the experiment with ACHN renal was 67.8 µM; with HOP-62 NSCLC, 90800 nM; in the experiment with HOP-92 NSCLC, 48.4 µM; in the experiment with NCI-H522 lung, 37.6 µM; in the experiment on RXF 393 renal, over 100 µM; in the experiment with SNB-19 CNS, over 100 µM. For the same molecule, the GI50 with U251 CNS was 48.4 µM. For the same molecule, the TGI with ACHN renal, in the experiment on HOP-62 NSCLC, in the experiment with HOP-92 NSCLC, with NCI-H522 lung, with RXF 393 renal and with SNB-19 CNS was over 100 µM each time. This molecule returned a TGI in the experiment on U251 CNS of over 100 µM.

In the case of `C=CCN=C(N/N=C/c1ccc([N+](=O)[O-])o1)NS(=O)(=O)c1cc(C(=O)Nc2ccc(Cl)cc2)c(Cl)cc1SC`, the GI50 is 3.55 µM in the experiment on ACHN renal; 1050 nM in the experiment with HL-60(TB) leukemia; 1800 nM in the experiment with HOP-62 NSCLC; 4.94 µM in the experiment with HOP-92 NSCLC; over 58.8 µM in the experiment with NCI-H522 lung; over 100 µM in the experiment on SNB-19 CNS. The GI50 in the experiment with U251 CNS was 3.93 µM. The TGI is over 50.1 µM in the experiment with ACHN renal; 8.09 µM in the experiment with HL-60(TB) leukemia; 7.32 µM in the experiment with HOP-62 NSCLC; over 100 µM in the experiment with HOP-92 NSCLC; over 100 µM with NCI-H522 lung; over 100 µM in the experiment with SNB-19 CNS. For the same molecule, the TGI with U251 CNS is over 100 µM.

Regarding `COC(C(=O)NN)c1ccccc1` (stereo not drawn), the TGI with ACHN renal, in the experiment with HOP-62 NSCLC, in the experiment on HOP-92 NSCLC, with NCI-H522 lung, in the experiment with RXF 393 renal and with SNB-19 CNS was over 100 µM throughout. Also, the TGI in the experiment on U251 CNS is over 100 µM.

`Cc1cc(NCCCN(C)C)c2ccc3c(ccc4c(NCCCN(C)C)cc(C)nc43)c2n1`: the GI50 is 0.238 µM with ACHN renal; 37.5 nM with HL-60(TB) leukemia; 196 nM with HOP-62 NSCLC; 0.0665 µM with HOP-92 NSCLC; 0.202 µM in the experiment with NCI-H522 lung; 0.181 µM in the experiment on SNB-19 CNS. In the experiment with U251 CNS, the GI50 is 0.199 µM. The TGI stood at 0.744 µM with ACHN renal; 0.489 µM with HOP-62 NSCLC; 0.298 µM in the experiment with HOP-92 NSCLC; 0.554 µM with NCI-H522 lung; 0.514 µM with SNB-19 CNS; 0.541 µM in the experiment with U251 CNS.

On to `CC(C)CCCC(C)[C@H]1CCC2[C@@H]3CCC4Cc5nc6c(nc5C[C@]4(C)C3CC[C@@]21C)CC1CC[C@@H]2C(CC[C@@]3(C)C2CC[C@@H]3C(C)CCCC(C)C)[C@@]1(C)C6` (stereo partly drawn), for which the TGI in the experiment with ACHN renal, in the experiment with HL-60(TB) leukemia, in the experiment on HOP-62 NSCLC, in the experiment on HOP-92 NSCLC, in the experiment with RXF 393 renal and in the experiment with SNB-19 CNS was over 100 µM each time. The molecule further showed a TGI in the experiment with U251 CNS of over 100 µM.

For `COc1cc2c(cc1OC)[C@H](C)N1CCc3cc(OC)c(OC)cc3[C@@H]1C2`, the TGI in the experiment on ACHN renal, in the experiment with HL-60(TB) leukemia, with HOP-92 NSCLC, with NCI-H522 lung, with SNB-19 CNS and with U251 CNS was over 100 µM throughout.

As to `Cc1cc([N+](=O)[O-])c(NS(=O)(=O)c2cccc(C(=O)O)c2)cc1-c1cccnc1`, the GI50 in the experiment on ACHN renal is over 100 µM; with HL-60(TB) leukemia it was over 100000 nM; in the experiment with HOP-62 NSCLC, over 100000 nM; in the experiment with HOP-92 NSCLC, over 100 µM; with RXF 393 renal, over 100 µM; in the experiment with SNB-19 CNS, over 100 µM. Besides, in the experiment on U251 CNS, the GI50 was over 100 µM. Besides, the TGI in the experiment with ACHN renal, with HL-60(TB) leukemia, in the experiment on HOP-62 NSCLC, with HOP-92 NSCLC, with RXF 393 renal and in the experiment with SNB-19 CNS was over 100 µM throughout. In the experiment with U251 CNS, this molecule returned a TGI of over 100 µM.

Consider `COc1cc(OC)c(C/C=C/c2ccccc2)cc1O`, for which the TGI with ACHN renal is 72.3 µM; in the experiment with HL-60(TB) leukemia it was 52.2 µM; in the experiment with HOP-92 NSCLC, 26.5 µM; with NCI-H522 lung, 27.2 µM; in the experiment with SNB-19 CNS, 29.3 µM; in the experiment on U251 CNS it was 30.4 µM.
